Here are results for 31 compounds from ChEMBL document CHEMBL1130860, “Thrombin receptor (PAR-1) antagonists. Heterocycle-based peptidomimetics of the SFLLR agonist motif” (Bioorg Med Chem Lett, 1998).

The species named for assay [1] is Homo sapiens. Put plainly: Inhibition of TRAP-6 (SFLLRN-NH2)-induced human gel filtered platelet aggregation (GFP). It is filed as functional.
The species entered for assay [2] is Homo sapiens. Put plainly: Inhibition of alpha-thrombin-induced human gel filtered platelet aggregation (GFP). The class given is functional.
Assay [3] has as its target T1, Proteinase-activated receptor 1 (Homo sapiens, UniProt P25116).
T1 sequence (P25116 whole entry): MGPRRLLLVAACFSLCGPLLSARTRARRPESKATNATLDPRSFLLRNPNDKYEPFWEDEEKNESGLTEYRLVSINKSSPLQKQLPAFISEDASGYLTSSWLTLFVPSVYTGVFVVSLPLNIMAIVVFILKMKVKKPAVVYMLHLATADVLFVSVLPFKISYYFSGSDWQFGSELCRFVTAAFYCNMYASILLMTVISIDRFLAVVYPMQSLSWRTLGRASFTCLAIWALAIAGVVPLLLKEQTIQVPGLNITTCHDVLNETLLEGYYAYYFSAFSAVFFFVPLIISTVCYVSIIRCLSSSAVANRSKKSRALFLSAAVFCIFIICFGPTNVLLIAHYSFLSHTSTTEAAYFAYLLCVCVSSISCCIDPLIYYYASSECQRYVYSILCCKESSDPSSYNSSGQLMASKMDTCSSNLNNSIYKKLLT
Description: Inhibition of [3H]S-(p-F-Phe)-Har-L-Har-KY-NH2 binding to a thrombin receptor (PAR-1) membrane preparation.

Numbered stars: 1 amine (or outer) side, 2 acyl side, 3 side chain; on linkers, the order of the positions; unused ones are H or OH. Square brackets hold non-standard residues; d marks the D form. Peptide text beside a SMILES is read from it. * marks the point of attachment. ξ: configuration not given here. Phe(4-F)ψ(2,4-Thz) = O=C(c1csc([C@H](Cc2ccc(F)cc2)N[*:1])n1)[*:2]; Phe(4-guanidino) = N=C(N)Nc1ccc(C[C@H](N)C(=O)O)cc1; X1 = COc1ccc(C[C@H](N[*:1])c2nc(C(=O)[*:2])cs2)cc1; Phe(4-F) = N[C@@H](Cc1ccc(F)cc1)C(=O)O; hArg = N=C(N)NCCCC[C@H](N)C(=O)O; Cha = N[C@@H](CC1CCCCC1)C(=O)O; Nphe = O=C(O)CNCc1ccccc1; X2 = O=C(/C=C/c1ccccc1)*; ξV = CC(C)C(N)C(=O)O; Sar = CNCC(=O)O

Turning to `Cc1oc([C@H](Cc2ccc(F)cc2)NC(=O)C(N)CN)nc1C(=O)N[C@@H](CC1CCCCC1)C(=O)N[C@@H](CCCN=C(N)N)C(=O)NCc1ccccc1` (stereo partly drawn), the IC50 turned out to be 25 µM in the assay filed under Homo sapiens [1], 24 µM in the assay filed under Homo sapiens [2] and 53 µM in assay [3].
`CNCC(=O)N[C@@H](Cc1ccc(F)cc1)c1nc(C(=O)N[C@@H](CC2CCCCC2)C(=O)N[C@@H](CCCCN=C(N)N)C(=O)N[C@@H](Cc2ccccc2)C(N)=O)cs1` (H-[Sar][Phe(4-F)ψ(2,4-Thz)][Cha][hArg]F-NH2): the values for the IC50 in the assay filed under Homo sapiens [1] and in the assay filed under Homo sapiens [2] were 7.7 µM and 59 µM, respectively.
In the case of `CNCC(=O)N[C@@H](Cc1ccc(F)cc1)c1nc(C(=O)N[C@@H](CC2CCCCC2)C(=O)N[C@@H](CCCN=C(N)N)C(=O)N[C@@H](Cc2ccc(O)cc2)C(N)=O)cs1` (H-[Sar][Phe(4-F)ψ(2,4-Thz)][Cha]RY-NH2), the values for the IC50 (in the assay listed under Homo sapiens [1]; in the assay listed under Homo sapiens [2]; in assay [3]) were 5.5 µM, 45 µM and 4.1 µM, respectively.
Regarding `NCC(=O)N[C@@H](Cc1ccc(F)cc1)c1nc(C(=O)N[C@@H](CC2CCCCC2)C(=O)N[C@@H](CCCN=C(N)N)C(N)=O)co1`, the IC50 amounted to 13 µM in the assay listed under Homo sapiens [1], 19 µM in the assay listed under Homo sapiens [2] and 6.2 µM in assay [3].
For `CNCC(=O)N[C@@H](Cc1ccc(F)cc1)c1nc(C(=O)N[C@@H](CC2CCCCC2)C(=O)N[C@@H](CCCNC(=N)N)C(=O)NCc2ccccc2)cs1` the same measures were 11 µM, 27 µM and 10 µM.
Taken in the same sequence, the figures for `CNCC(=O)N[C@@H](Cc1ccc(F)cc1)c1nc(C(=O)N[C@@H](Cc2ccccc2)C(=O)N[C@@H](CCCN=C(N)N)C(=O)NCc2ccccc2)cs1` were 13 µM, 46 µM and 24 µM.
As for `CNCC(=O)N[C@@H](Cc1ccc(F)cc1)c1nc(C(=O)N[C@@H](CC2CCCCC2)C(=O)N[C@@H](CCCN=C(N)N)C(=O)NCc2ccccc2)co1`, the results for the IC50 (in the assay listed under Homo sapiens [1]; in the assay listed under Homo sapiens [2]; in assay [3]) were 6.6 µM, 25 µM and 1.6 µM, respectively.
The compound `CNCC(=O)N[C@@H](Cc1ccc(F)cc1)c1nc(C(=O)N[C@@H](CCCNC(=N)N)C(=O)N[C@@H](CCCNC(=N)N)C(=O)N[C@@H](Cc2ccccc2)C(N)=O)cs1` (H-[Sar][Phe(4-F)ψ(2,4-Thz)]RRF-NH2) came in with an IC50 in assay [3] above 100 µM.
Consider `CC(C)C(N)C(=O)N[C@@H](Cc1ccc(F)cc1)c1nc(C(=O)N[C@@H](CC2CCCCC2)C(=O)N[C@@H](CCCNC(=N)N)C(=O)N[C@@H](Cc2ccccc2)C(N)=O)cs1` (stereo partly drawn) (H-[ξV][Phe(4-F)ψ(2,4-Thz)][Cha]RF-NH2), for which the IC50 in assay [3] stood at 2.7 µM.
For the compound `CNCC(=O)N[C@@H](Cc1ccc(F)cc1)c1nc(C(=O)N[C@H](CC2CCCCC2)C(=O)N[C@@H](CCCNC(=N)N)C(=O)N[C@@H](Cc2ccccc2)C(N)=O)cs1`, the IC50 in the assay listed under Homo sapiens [1] came to 42 µM; in the assay listed under Homo sapiens [2], 96 µM; in assay [3], 94 µM.
For `NCC(=O)N[C@@H](Cc1ccc(F)cc1)c1nc(C(=O)N[C@@H](CC2CCCCC2)C(=O)N[C@@H](CCCN=C(N)N)C(=O)NCc2ccccc2)co1` the same measures were 10 µM, 17 µM and 5.4 µM.
Regarding `CC(C)C[C@H](NC(=O)[C@H](Cc1ccc(NC(=N)N)cc1)NC(=O)[C@H](Cc1ccc(F)cc1)NC(=O)/C=C/c1ccccc1)C(=O)N[C@@H](CCCN=C(N)N)C(=O)N[C@@H](CCCN=C(N)N)C(N)=O` (X2-[Phe(4-F)][Phe(4-guanidino)]LRR-NH2), the IC50 is 0.021 µM in the assay listed under Homo sapiens [1] and 0.0075 µM in assay [3].
For `NC(=O)[C@H](Cc1ccccc1)NC(=O)[C@H](CCCN=C(N)N)NC(=O)[C@H](CC1CCCCC1)NC(=O)c1csc([C@@H](N)Cc2ccc(F)cc2)n1`, the figures for the IC50 (in the assay listed under Homo sapiens [1]; in the assay filed under Homo sapiens [2]; in assay [3]) were 16 µM, 28 µM and 8 µM, respectively.
For the compound `CNCC(=O)N[C@@H](Cc1ccc(F)cc1)c1nc(C(=O)N[C@@H](CCCN=C(N)N)C(=O)N[C@@H](CCCN=C(N)N)C(=O)N[C@@H](Cc2ccccc2)C(N)=O)cs1` (H-[Sar][Phe(4-F)ψ(2,4-Thz)]RRF-NH2), the IC50 in the assay filed under Homo sapiens [1] and in the assay listed under Homo sapiens [2] was above 100 µM each time.
As for `CNCC(=O)N[C@@H](Cc1ccc(F)cc1)c1nc(C(=O)N[C@@H](CC2CCCCC2)C(=O)N[C@@H](CCCN=C(N)N)C(=O)N[C@@H](CC2CCCCC2)C(N)=O)cs1` (H-[Sar][Phe(4-F)ψ(2,4-Thz)][Cha]R[Cha]-NH2), the IC50 in the assay filed under Homo sapiens [1] is 6.8 µM; in the assay filed under Homo sapiens [2] it was 46 µM.
Regarding `CC(=O)N[C@@H](Cc1ccc(F)cc1)c1nc(C(=O)N[C@@H](CC2CCCCC2)C(=O)N[C@@H](CCCNC(=N)N)C(=O)NCc2ccccc2)c(C)o1`, the IC50 in the assay filed under Homo sapiens [1] was found to be 19 µM; in the assay listed under Homo sapiens [2], 18 µM; in assay [3] it was 30 µM.
Turning to `CC(C)C[C@H](NC(=O)[C@H](CC(C)C)NC(=O)[C@H](Cc1ccccc1)NC(=O)[C@@H](N)CO)C(=O)N[C@@H](CCCN=C(N)N)C(=O)N[C@@H](CC(N)=O)C(N)=O`, the values for the IC50 (in the assay filed under Homo sapiens [1]; in assay [3]) were 0.3 µM and 73 µM, respectively.
With `CNCC(=O)N[C@@H](Cc1ccc(F)cc1)c1nc(C(=O)N2CCCC(C(=O)N[C@@H](CCCNC(=N)N)C(=O)N[C@@H](Cc3ccccc3)C(N)=O)C2)cs1` (stereo partly drawn), the IC50 (in the assay filed under Homo sapiens [1]; in the assay listed under Homo sapiens [2]; in assay [3]) was above 100 µM in each case.
With `CNCC(=O)N[C@@H](Cc1ccc(F)cc1)c1nc(C(=O)N[C@@H](CC2CCCCC2)C(=O)N[C@@H](CCCN=C(N)N)C(=O)N[C@@H](Cc2ccccc2)C(N)=O)cs1`, the results for the half-maximal inhibitory concentration (IC50) (in the assay filed under Homo sapiens [1]; in the assay filed under Homo sapiens [2]; in assay [3]) were 14 µM, 41 µM and 5.7 µM, respectively.
Taken in the same sequence, the figures for `CNCC(=O)N[C@@H](Cc1ccc(F)cc1)c1nc(C(=O)N[C@@H](CC2CCCCC2)C(=O)N[C@@H](CCCNC(=N)N)C(=O)NCc2ccccc2)c(C)o1` were 18 µM, 23 µM and 5 µM.
`CNCC(=O)N[C@@H](Cc1ccc(F)cc1)c1nc(C(=O)N[C@@H](CC2CCCCC2)C(=O)N[C@@H](CCCNC(=N)N)C(=O)N[C@@H](CC2CCCCC2)C(N)=O)cs1` (H-[Sar][Phe(4-F)ψ(2,4-Thz)][Cha]R[Cha]-NH2) yielded an IC50 in assay [3] of 2.7 µM.
For `CC[C@H](C)[C@H](N)C(=O)N[C@@H](Cc1ccc(F)cc1)c1nc(C(=O)N(CC(=O)N[C@@H](CCCN=C(N)N)C(=O)N[C@@H](Cc2ccccc2)C(N)=O)Cc2ccccc2)cs1` (H-I[Phe(4-F)ψ(2,4-Thz)][Nphe]RF-NH2), the IC50 in the assay listed under Homo sapiens [1] was 80 µM; in the assay filed under Homo sapiens [2], above 100 µM; in assay [3], above 100 µM.
On to `CC(C)C(N)C(=O)N[C@@H](Cc1ccc(F)cc1)c1nc(C(=O)N[C@@H](CC2CCCCC2)C(=O)N[C@@H](CCCN=C(N)N)C(=O)N[C@@H](Cc2ccccc2)C(N)=O)cs1` (stereo partly drawn) (H-[ξV][Phe(4-F)ψ(2,4-Thz)][Cha]RF-NH2), for which the IC50 in the assay listed under Homo sapiens [1] is 4.6 µM; in the assay filed under Homo sapiens [2], 22 µM.
As to `CC[C@H](C)[C@H](N)C(=O)N[C@@H](Cc1ccc(F)cc1)c1nc(C(=O)N[C@@H](CC2CCCCC2)C(=O)N[C@@H](CCCN=C(N)N)C(=O)N[C@@H](Cc2ccccc2)C(N)=O)cs1` (H-I[Phe(4-F)ψ(2,4-Thz)][Cha]RF-NH2), the IC50 stood at 4 µM in the assay filed under Homo sapiens [1], 32 µM in the assay listed under Homo sapiens [2] and 3.9 µM in assay [3].
For `NCCC(=O)N[C@@H](Cc1ccc(F)cc1)c1nc(C(=O)N[C@@H](CC2CCCCC2)C(=O)N[C@@H](CCCN=C(N)N)C(=O)NCc2ccccc2)co1` the same measures were 36 µM, above 100 µM and 6.7 µM.
For `CNCC(=O)N[C@@H](Cc1ccc(F)cc1)c1nc(C(=O)N[C@@H](CCCCN)C(=O)N[C@@H](CCCNC(=N)N)C(=O)NCCc2ccccc2)cs1` the same measures were above 100 µM, above 100 µM and above 100 µM.
Taken in the same sequence, the figures for `CNCC(=O)N[C@@H](Cc1ccc(F)cc1)c1nc(C(=O)N[C@@H](CC2CCCCC2)C(=O)N[C@@H](CCCN=C(N)N)C(=O)NCCc2ccccc2)cs1` were 10 µM, 27 µM and 5.6 µM.
For the compound `COc1ccc(C[C@H](NC(=O)C(N)C(C)C)c2nc(C(=O)N[C@@H](CC3CCCCC3)C(=O)N[C@@H](CCCNC(=N)N)C(=O)N[C@@H](Cc3ccccc3)C(N)=O)cs2)cc1` (stereo partly drawn) (H-[ξV][X1][Cha]RF-NH2), the IC50 in assay [3] came out at 8.2 µM.
Consider `CNCC(=O)N[C@@H](Cc1ccccc1)c1nc(C(=O)N[C@@H](CC2CCCCC2)C(=O)N[C@@H](CCCNC(=N)N)C(=O)NCc2ccccc2)c(C)o1`, for which the IC50 in the assay filed under Homo sapiens [1] was found to be 36 µM; in the assay listed under Homo sapiens [2], 45 µM; in assay [3], 60 µM.
For `COc1ccc(C[C@H](NC(=O)C(N)C(C)C)c2nc(C(=O)N[C@@H](CC3CCCCC3)C(=O)N[C@@H](CCCN=C(N)N)C(=O)N[C@@H](Cc3ccccc3)C(N)=O)cs2)cc1` (stereo partly drawn) (H-[ξV][X1][Cha]RF-NH2), the IC50 in the assay filed under Homo sapiens [1] worked out at 9.5 µM; in the assay filed under Homo sapiens [2], 49 µM.
Consider `CNCC(=O)N[C@@H](Cc1ccc(F)cc1)c1nc(C(=O)N[C@@H](CC2CCCCC2)C(=O)N[C@@H](CCCNC(=N)N)C(=O)NCC(C)c2ccccc2)cs1` (stereo partly drawn), for which the concentration for half-maximal inhibition (IC50) in the assay listed under Homo sapiens [1] amounted to 16 µM; in the assay filed under Homo sapiens [2], 40 µM; in assay [3], 24 µM.
